In patent US20240325424A1, “Pharmaceutical Compositions And Methods For Treating Neoplasia” (priority 2021, published 2024) one finds EC50 and effectiveness against virus data, which are given here for one compound.

In general, EC50 refers to the concentration that produces a half-maximal response.

Assay [1] has as its system Influenza A H1N1. Nature of the assay: antiviral test Influenza A H1N1. The assay is classed as cell-based. The conditions noted are these: Influenza A virus.
The test system of assay [2] is a virus. To be noted: virus of Chan et al., 2013, p. 612; cited from earlier work.
Assay [3] deals with RSV. Nature of the assay: antiviral test RSV. The assay is classed as cell-based. To be noted: human respiratory syncytial virus.
Assay [4] relates to pandemic flu H1/415, A/Hong Kong/415742/2009, A(H1N1)pdm09. The conditions noted are these: To et al. (2016); cited from earlier work.
Assay [5] deals with avian-origin influenza A (H7N9). To be noted: cited from earlier work.
The subject of assay [6] is seasonal influenza A(H3N2) virus. The conditions noted are these: To et al. (2016); cited from earlier work.
Assay [7] concerns Norovirus. Kind of assay: Norovirus test. The assay is classed as cell-based.

Converted amounts (≈) assume the structure as drawn. Where only a bound is given, the exact number is not on record here.

Consider `COc1c(C)c2c(c(O)c1C/C=C(\C)CCC(=O)O)C(=O)OC2` [mycophenolic acid, 6-(4-hydroxy-6-methoxy-7-methyl-3-oxo-1,3-dihydroisobenzofuran-5-yl)-4-methyl-hex-4-enoic acid], for which the EC50 in assay [1] was less than 0.1 µg/mL; in assay [2], 0.17 µg/mL (≈ 0.531 µM); in assay [3] it was less than 0.1 µg/mL; in assay [7] it was 0.151 µg/mL (≈ 0.471 µM). The effectiveness against virus entry in assay [4], in assay [5] and in assay [6] was “effective” throughout.
